The numbers were not newly measured in paper PMC4203335 (International Journal of Oncology, 2014), which cites them from elsewhere.

The test system of data set [1] is Burkitt lymphoma xenografts.
For data set [2] the following is noted: mice.
For data set [3], the system named is melanoma.
The test system of data set [4] is N-Myc-induced neuroblastoma.
In data set [5] the test system is SIRT1.
Data set [6] has as its system colon xenograft.

With `O=c1[nH]c(=S)[nH]c(-c2ccccc2)c1Cc1c(O)ccc2ccccc12` [Cambinol], in data set [1], the growth of xenografts result is “significantly inhibited”. In addition, in data set [2], the tolerability result is listed as “well tolerated”.
Regarding `CN(C)CCCCC(=O)Nc1ccc(NC(=S)NC(=O)c2ccc(C(C)(C)C)cc2)cc1` [Tenovin-6], the tumorigenesis entry in data set [3] and in data set [4] was “suppressed tumorigenesis” each time.
In the case of `CC(C)=CCC[C@]1(C)[C@@H](CC=C(C)C)C[C@@]2(CC=C(C)C)C(=O)[C@]1(C(=O)C(C)C)C(=O)C(CC=C(C)C)=C2OCC(=O)O` [aristoforin], the SIRT1 inhibitory activity result in data set [5] is on record as “have SIRT1 inhibitory activity”.
As for guttiferone G, the SIRT1 inhibitory activity entry in data set [5] was “have SIRT1 inhibitory activity”.
Take inauhzin: the xenograft growth result in data set [6] is listed as “reduced colon xenograft growth”.
